According to patent US6773702B2, “Use of combretastatin A4 and its prodrugs as an immune enhancing therapy” (OXiGENE, Inc., priority 2000, dated 2004):

Legend:
[1] = system: spleen cells of H1D2-WT tumor-bearing rat; test: In vitro proliferative response of spleen cells from a tumor-bearing rat treated with CA4 plus immunotherapy (FIG. 4); assay type: in vivo; details: for T cell proliferative response: CA4 2 mg/kg + active immunotherapy
Protocol: FIG. 4 illustrates the enhanced in vitro immune proliferative response (cpm) of spleen cells isolated from (H1D2-WT) a tumor-bearing rat previously treated in vivo with a combination of active immunomodulatory therapy and CA4 (2 mg/kg, 6 days a week). Spleen cells were tested 9 weeks after tumor inoculation when tumor sizes was 0.9 cm^3. LO signifies spleen cells containing adherent macrophages, whereas L1 represents the same population depleted of adherent macrophages. A subset of each cell sample was treated with either medium (Med) or L-NAME (1.5 mg/ml).
While the anti-tumor properties of CA4 and CA4P are very different, the present invention embraces the discovery that a low dose of either compound is capable of enhancing the immune responsiveness of a tumor host. FIG. 4 illustrates the in vitro immune proliferation of spleen cells isolated from a tumor-bearing rat previously subjected to treatment with a combination of CA4 (2 mg/kg) and active immunotherapy. The rat was killed 9 weeks after initiation of intrahepatic tumor growth, at which point the tumor had grown to a size of 0.9 cm^3. Control rats receiving immunotherapy alone were euthanized 5 weeks earlier due to the development of large tumor burdens (>5 cm3).
A tumor-bearing rat (H1D1-WT) was treated in vivo with weekly immunizations of IL-18 transfected tumor cells (H1D1-IL-18), in addition to CA4 treatment (2 mg/kg) 6 days a week. Due to the inherent insolubility of CA4, […] (0.9 cm^3 tumor) following […] of growth, at which point the untreated control rats were all dead with large tumor burdens (>5 cm^3) and would not be expected to show an immune response at such a late stage. Both unseparated spleen cells (L0) and nonadherent spleen cells (L1), depleted of most macrophages by plastic adherence (as in Example 2), were tested for a proliferative response to H1D2-IL18 tumor stimulator cells in the absence or presence of the NO-synthase inhibitor L-NAME.

[2] = system: BN7005-H1D2 colon cancer cells; test: Comparison of CA4 and CA4P on BN7005-H1D2 tumor growth, alone or with vaccination (FIG. 5); assay type: in vivo, rat
Protocol: FIGS. 5A AND 5B illustrate a comparison of the therapeutic effect of Combretastatin A4 and Combretastatin A4 Prodrug (2 mg/kg) on tumor growth (BN7005-H1D2) in vivo as a sole therapy or in combination with therapeutic vaccination (IL-18 tumor transfectants). Results are represented as mean tumor volume (FIG. 5A) or as median tumor volume (FIG. 5B) 31 days after tumor initiation.
A comparison was also made of relative effect of CA4 and CA4P administration in vivo with regard to tumor inhibitory effects when used as sole therapy and when combined with immunomodulatory gene therapy. […] A subset of these animals were subjected to regular vaccinations autologous IL-18 and IL-12-transfected tumor cells, respectively.
A comparison has been made of the effect of CA4 and CA4 prodrug with regard to tumor inhibitory effects when used as sole therapy and when combined with immunomodulatory gene therapy. As represented in FIG. 5, wild-type (BN7005-H1D2) colon cancer cells were inoculated intrahepatically and treatment with CA4 and CA4P began on day 7 (2 mg/kg 6 days a week), when the tumors were macroscopically visible. On day 9, 16 and 23, vaccinations occurred using BN7005-H1D2 cells transfected with ILI8 and IL-12, respectively.

[3] = cited from earlier work
[4] = system: colon carcinoma H1D2-WT cells; test: Intrahepatic growth of colon carcinoma H1D2-WT, tumor volume after 4 weeks (Table 2); assay type: in vivo, rat; details: no CA4-P; L-NAME gavage; with immunization
Protocol: Table 2 is a summary of intrahepatic growth of colon carcinoma H1D2-WT cells treated with low dose CA4P alone or in combination with immunomodulatory gene therapy, and with or without additional inhibitor. Tumor growth was initiated by inoculation beneath the liver capsule with 1×10^5 in vitro cultured BN7005-H1D2 wild type cells suspended in 50 μl RPMI medium. Drug administration (CA4P, L-NAME, Indomethacin) was initiated after 7-8 days when the tumor was macroscopically visible. CA4P was given intraperitoneally, 5 days a week. L-NAME was given by gavage twice a week on the day of immunization and the day after. Indomethacin was given by gavage 48 h after vaccination at a dose of 0.33 mg/kg. Immunization was performed by intraperitoneal administration on day 10 and day 17 using BN7005-H1D2 cells transfected with IL-18 or a mixture of IL-18 and IL-12 transfectants (2-3×10^6 viable cells per rat).
Wild-type (BN7005-H1D2) colon cancer cells (1×10^5 cells) were inoculated intrahepatically and CA4P drug treatment (2 and 5 mg/kg) began daily when the tumors were macroscopically visible. On day 10 and 17, vaccinations were administered intraperitoneally using […] cells transfected with IL-18 transfected cells or mixtures of IL-18 and IL-12 transfected cells (2-3×10^6 viable cells per rat). L-NAME and Indomethacin were also administered by gavage 48 h after vaccination at a dose of 0.33 mg/kg.

[5] = system: BN7005-H1D2 colon cancer cells; test: Tumor growth with IL-18/IFN-γ vaccination plus CA4P and/or L-NAME (FIG. 6); assay type: in vivo, rat; details: L-NAME by gavage 48 mg/rat + vaccination with IL-18/IFN-γ producing tumor cells
Protocol: FIG. 6 illustrates enhancement of the therapeutic effect of vaccination with IL-18/IFN-γ producing tumor transfectant […] cells by concurrent treatment with low dose combretastatin-A4 prodrug and/or L-NAME. Mean tumor volume±SEM is indicated. Significance of differences compared to the PBS control was evaluated by the Student's t test.
Four groups of 6 rats each were inoculated intrahepatically with 1×10^5 wild type colon cancer cells (BN7005-H1D2) on day 0. Drug treatment was initiated on day 7, when the tumor was macroscopically visible as a small nodule, and was repeated 5 days a week. CA4-P was administered i.p. at a dose of 5 mg/kg and L-NAME by gavage at a dose of 48 mg/rat. Vaccination was given twice i.p. on day 10.and 17 with 2×10^6 tumor cells producing IL-18 and IFN-γ, respectively. No drug treatment was given on the day of vaccination and the day after. On day 28 all animals were laparotomized and tumor diameters measured (the longest diameter (a) and the one perpendicular to the first (b) and tumor volume calculated according to the formula 0.4×a×b×b.
Referring to FIG. 6, wild-type (BN7005-H1D2) colon cancer cells were inoculated intrahepatically and combretastatin A4 prodrug treatment began daily on day 7 when the tumors were macroscopically visible. L-NAME, a well known NO inhibitor and effective antitumor agent, was also administered daily. On day 10 and 17 vaccination occurred using BN7005-H1D2 cells transfected with IL-18/IFN-gamma. […] One likely explanation was that both L-NAME and Combretastatin A4 were doing the same thing; i.e. inhibiting the production of proinflammatory cytokines that cause immune suppression.

COc1ccc(/C=C\c2cc(OC)c(OC)c(OC)c2)cc1O [CA4, Combretastatin A4]
Tumor size ([1]; 9 weeks after initiation of intrahepatic tumor growth, CA4 2 mg/kg + active immunotherapy (controls >5 cm3)): 0.9 cm^3
T cell proliferative response ([1]; non-adherent T cells (L1), 9 weeks): 86,000 cpm
T cell proliferative response ([1]; unseparated spleen cells (L0) in the presence of L-NAME in vitro): 44,000 cpm
T cell proliferative response ([1]; unseparated spleen cells (L0), 9 weeks after tumor initiation): 9000 cpm
Tumor inhibitory effect ([2]; 2 mg/kg 6 days a week as sole therapy): no significant effect as sole therapy
Tumor inhibitory effect ([2]; 2 mg/kg combined with vaccination (IL-18 and IL-12 transfected tumor cells)): significant tumor inhibitory effects
Solubility in water [3]: very limited

COC(=O)[C@@H](N)CCCNC(=N)N[N+](=O)[O-] [L-NAME, reference compound]
Tumor volume after 4 weeks, Mean [4]: 1285 mm^3
Tumor volume after 4 weeks, Median [4]: 879 mm^3
Enhancement of immune stimulated gene therapy [5]: effective enhancers of immune stimulated gene therapy
